Test results reported in publication PMC8236845.
pEC50, pIC50: −log10 of the molar value. Structures can show the parent of a compound that is named as a salt. Where two headings read alike, the source gives them in different places. Numbered stars: 1 amine (or outer) side, 2 acyl side, 3 side chain; on linkers, the order of the positions; unused ones are H or OH. Bridge positions count the residues as written; N and C are the ends. Square brackets hold non-standard residues; d marks the D form. Peptide text beside a SMILES is read from it. * marks the point of attachment. pTerphenylCO(4''-OnC5H11) = CCCCCOc1ccc(-c2ccc(-c3ccc(C(=O)*)cc3)cc2)cc1; Orn(4R-OH,5R-OH) = O=C([C@H](C[C@@H](O)[C@@H](O)N[*:3])N[*:1])[*:2]; Tetradecanoyl(10R,12S-Me2) = CC[C@H](C)C[C@H](C)CCCCCCCCC(=O)*; hTyr(3S-OH,4S-OH) = N[C@H](C(=O)O)[C@H](O)[C@@H](O)c1ccc(O)cc1; Pro(3S-OH,4S-Me) = C[C@H]1CN[C@H](C(=O)O)[C@H]1O; Gln(3R-OH) = NC(=O)C[C@@H](O)[C@H](N)C(=O)O; Pro(3S-OH) = O=C(O)[C@H]1NCC[C@@H]1O; Hyp = O=C(O)[C@@H]1C[C@@H](O)CN1

Target: binding of recombinant, trimeric SARS-CoV-2 spike protein to recombinant human ACE2 (Severe acute respiratory syndrome coronavirus 2, UniProt P0DTC2, K986P/R682G/R683S/R685S/V987P)
Assay: biochemical
Design: species or system SARS-CoV-2 / human

| Compound | % Inhibition [%] | further results |
| --- | --- | --- |
| CNC(=O)c1cc(Oc2ccc(NC(=O)Nc3ccc(Cl)c(C(F)(F)F)c3)cc2)ccn1 [Sorafenib Tosylate] | – | % Inhibition, Screen: 21% |
| COC[C@H]1C[C@@H](c2nc(-c3ccc4c(c3)COc3cc5c(ccc6nc([C@@H]7CC[C@H](C)N7C(=O)[C@@H](NC(=O)OC)C(C)C)[nH]c65)cc3-4)c[nH]2)N(C(=O)[C@H](NC(=O)OC)c2ccccc2)C1 [Velpatasvir] | 93 | – |
| O=C(NC1CCN(CCCCC2(C(=O)NCC(F)(F)F)c3ccccc3-c3ccccc32)CC1)c1ccccc1-c1ccc(C(F)(F)F)cc1 [Lomitapide Mesylate] | 93 | – |
| CC[C@@H]([C@H](C)O)n1ncn(-c2ccc(N3CCN(c4ccc(OC[C@@H]5CO[C@@](Cn6cncn6)(c6ccc(F)cc6F)C5)cc4)CC3)cc2)c1=O [Posaconazole] | 97 | – |
| CN1CC(=O)N2[C@H](c3ccc4c(c3)OCO4)c3[nH]c4ccccc4c3C[C@@H]2C1=O [Tadalafil] | 96 | – |
| COC(=O)N[C@H](C(=O)N1CCC[C@H]1c1nc(-c2ccc3c(c2)O[C@@H](c2ccccc2)n2c-3cc3cc(-c4c[nH]c([C@@H]5CCCN5C(=O)[C@@H](NC(=O)OC)C(C)C)n4)ccc32)c[nH]1)C(C)C [Elbasvir] | 100 | – |
| NC1CCN(c2nc3c(cc2F)c(=O)c(C(=O)O)cn3-c2ccc(F)cc2F)C1 (stereo not drawn) [Tosufloxacin (P-Toluenesulfonic Acid), Tosufloxacin] | 97 | – |
| Cc1c(O)cccc1C(=O)N[C@@H](CSc1ccccc1)[C@H](O)CN1C[C@H]2CCCC[C@H]2C[C@H]1C(=O)NC(C)(C)C [Nelfinavir Mesylate] | 94 | – |
| C=CC(=O)Nc1cccc(Oc2nc(Nc3ccc(N4CCN(C)CC4)cc3)nc3ccsc23)c1 [Olmutinib] | 98 | – |
| Ivermectin | – | % inhibition in first-round screen: 89% |
| CC[C@@]1(O)C(=O)OCc2c1cc1n(c2=O)Cc2cc3c(CN(C)C)c(O)ccc3nc2-1 [Topotecan] | – | inhibition of spike-ACE2 binding in the screen: did not inhibit |
| CN1CCN(c2ccc(C(=O)Nc3n[nH]c4ccc(Cc5cc(F)cc(F)c5)cc34)c(NC3CCOCC3)c2)CC1 [Entrectinib] | 90 | pIC50: 4.23 |
| COC(=O)N[C@H](C(=O)N1CCC[C@H]1c1nc(-c2ccc(-c3ccc(-c4c[nH]c([C@@H]5CCCN5C(=O)[C@@H](NC(=O)OC)C(C)C)n4)cc3)cc2)c[nH]1)C(C)C [Daclatasvir] | 99 | – |
| CCCCCCCCN=c1ccn(CCCCCCCCCCn2ccc(=NCCCCCCCC)cc2)cc1 [Octenidine Dihydrochloride] | 100 | – |
| Cc1cn(-c2cc(NC(=O)c3ccc(C)c(Nc4nccc(-c5cccnc5)n4)c3)cc(C(F)(F)F)c2)cn1.Cl [Nilotinib HCl, Nilotinib Hydrochloride] | 99 | – |
| Cc1ccc(-c2cc(C(F)(F)F)nn2-c2ccc(S(N)(=O)=O)cc2)cc1 [Celecoxib] | 93 | pIC50: 4.21 |
| OC(c1cc(C(F)(F)F)nc2c(C(F)(F)F)cccc12)C1CCCCN1 (stereo not drawn) [Mefloquine] | – | % inhibition in first-round screen: 77% |
| C[C@]12CC[C@@H]3c4ccc(OC(=O)c5ccccc5)cc4CC[C@H]3[C@@H]1CC[C@@H]2O [Estradiol benzoate] | 93 | – |
| COC(=O)N[C@H](C(=O)N1CCC[C@H]1c1nc(-c2ccc(-c3ccc(-c4c[nH]c([C@@H]5CCCN5C(=O)[C@@H](NC(=O)OC)C(C)C)n4)cc3)cc2)c[nH]1)C(C)C [Daclatasvir Dihydrochloride] | 97 | – |
| Cc1ccc(NC(=O)c2ccc(CN3CCN(C)CC3)cc2)cc1Nc1nccc(-c2cccnc2)n1 [Imatinib] | – | inhibition of spike-ACE2 binding in the screen: failed to inhibit |
| CON=C(C(=O)NC1C(=O)N2C(C(=O)OCOC(=O)C(C)(C)C)=C(C)CSC12)c1csc(N)n1 (stereo not drawn) [Cefetamet Pivoxil Hydrochloride] | 94 | – |
| CC(=O)O[C@@]12CO[C@@H]1C[C@H](O)[C@@]1(C)C(=O)[C@H](O)C3=C(C)[C@@H](OC(=O)[C@H](O)[C@@H](NC(=O)OC(C)(C)C)c4ccccc4)C[C@@](O)([C@@H](OC(=O)c4ccccc4)[C@H]21)C3(C)C [Docetaxel Trihydrate] | 95 | – |

| Compound | % Inhibition [%] | further results |
| --- | --- | --- |
| CCc1c2c(nc3ccc(OC(=O)N4CCC(N5CCCCC5)CC4)cc13)-c1cc3c(c(=O)n1C2)COC(=O)[C@]3(O)CC [Irinotecan] | – | inhibition of spike-ACE2 binding in the screen: did not inhibit |
| CC[C@@]1(O)C(=O)OCc2c1cc1n(c2=O)Cc2cc3cc(O)ccc3nc2-1 [S-(10)-hydroxycamptothecin, (S)-10-Hydroxycamptothecin] | 100 | – |
| CN(C)c1ccc2nc3ccc(=[N+](C)C)cc-3sc2c1 [Methylene Blue] | – | % inhibition in first-round screen: 44% |
| CC[C@H](C)C[C@H](C)CCCCCCCCC(=O)N[C@H]1C[C@@H](O)[C@@H](O)NC(=O)[C@@H]2[C@@H](O)CCN2C(=O)[C@H]([C@H](O)CC(N)=O)NC(=O)[C@H]([C@H](O)[C@@H](O)c2ccc(O)cc2)NC(=O)[C@@H]2C[C@@H](O)CN2C(=O)[C@H]([C@@H](C)O)NC1=O [Pneumocandin B0] ({Tetradecanoyl(10R,12S-Me2)}-[Orn(4R-OH,5R-OH)]T[Hyp][hTyr(3S-OH,4S-OH)][Gln(3R-OH)][Pro(3S-OH)]; lactam 1-C) | 98 | pEC50 (read-out: EC50 (corrected)): 4.14 |
| C=C(NC(=O)C(=C)NC(=O)c1csc(C2=N[C@@H]3c4csc(n4)[C@H]4NC(=O)c5csc(n5)[C@H]([C@](C)(O)[C@@H](C)O)NC(=O)[C@H]5CSC(=N5)/C(=C/C)NC(=O)[C@H]([C@@H](C)O)NC(=O)c5csc(n5)[C@]3(CC2)NC(=O)[C@H](C)NC(=O)C(=C)NC(=O)[C@H](C)NC(=O)[C@H]([C@@H](C)CC)N[C@@H]2C=Cc3c([C@H](C)O)cc(nc3[C@H]2O)C(=O)O[C@@H]4C)n1)C(N)=O [Thiostrepton] | 99 | – |
| CC[C@@]1(O)C(=O)OCc2c1cc1n(c2=O)Cc2cc3cc(O)ccc3nc2-1 [Hydroxycamptothecin] | 99 | – |
| COc1ccc(CN=c2[nH]c(N3CCC[C@H]3CO)ncc2C(=O)NCc2ncccn2)cc1Cl [Avanafil] | 99 | – |
| CC[C@@]1(O)C(=O)OCc2c1cc1n(c2=O)Cc2c-1nc1ccccc1c2CCNC(C)C [Belotecan] | – | inhibition of spike-ACE2 binding in the screen: did not inhibit |
| COc1ccc2cc1Oc1ccc(cc1)C[C@H]1c3c(cc4c(c3Oc3cc5c(cc3OC)CCN(C)[C@@H]5C2)OCO4)CCN1C [Cepharanthine] | 94 | – |
| Cc1nc(Nc2ncc(C(=O)Nc3c(C)cccc3Cl)s2)cc(N2CCN(CCO)CC2)n1.Cl [Dasatinib HCl] | 98 | pEC50 (read-out: EC50 (corrected)): 4.18 |
| CO/N=C(\C(=O)N[C@@H]1C(=O)N2C(C(=O)OCOC(=O)C(C)(C)C)=C(/C=C\c3scnc3C)CS[C@H]12)c1csc(N)n1 [Cefditoren Pivoxil] | 96 | – |
| COC(=O)N[C@H](C(=O)N1CCC[C@H]1C(=O)Nc1ccc([C@@H]2CC[C@@H](c3ccc(NC(=O)[C@@H]4CCCN4C(=O)[C@@H](NC(=O)OC)C(C)C)cc3)N2c2ccc(C(C)(C)C)cc2)cc1)C(C)C [Ombitasvir (ABT-267), Ombitasvir] | 92 | – |
| COc1cc([C@@H]2c3cc4c(cc3[C@H](O)[C@H]3COC(=O)[C@@H]23)OCO4)cc(OC)c1OC [Picropodophyllin] | 98 | – |
| COc1cc2nccc(Oc3ccc(NC(=O)NC4CC4)c(Cl)c3)c2cc1C(N)=O [Lenvatinib Mesylate] | 94 | – |
| Avermectin B1 | 98 | – |
| CCCCCOc1ccc(-c2ccc(-c3ccc(C(=O)N[C@H]4C[C@@H](O)[C@@H](O)NC(=O)[C@@H]5[C@@H](O)[C@@H](C)CN5C(=O)[C@H]([C@@H](C)O)NC(=O)[C@H]([C@H](O)[C@@H](O)c5ccc(O)cc5)NC(=O)[C@@H]5C[C@@H](O)CN5C(=O)[C@H]([C@@H](C)O)NC4=O)cc3)cc2)cc1 [Anidulafungin] ({pTerphenylCO(4''-OnC5H11)}-[Orn(4R-OH,5R-OH)]T[Hyp][hTyr(3S-OH,4S-OH)]T[Pro(3S-OH,4S-Me)]; lactam 1-C) | 99 | – |
| C[C@@H]1C[C@H]2[C@@H]3CCC4=CC(=O)C=C[C@]4(C)[C@@]3(Cl)[C@@H](O)C[C@]2(C)[C@@]1(OC(=O)c1ccco1)C(=O)CCl [Mometasone furoate] | 98 | – |
| N#Cc1ccc2[nH]cc(CCCCN3CCN(c4ccc5oc(C(N)=O)cc5c4)CC3)c2c1 [Vilazodone HCl] | 99 | – |
| CO[C@H]1C[C@@H]2CC[C@@H](C)[C@@](O)(O2)C(=O)C(=O)N2CCCC[C@H]2C(=O)O[C@H]([C@H](C)C[C@@H]2CC[C@@H](OC(=O)C(C)(CO)CO)[C@H](OC)C2)CC(=O)[C@H](C)/C=C(\C)[C@@H](O)[C@@H](OC)C(=O)[C@H](C)C[C@H](C)/C=C/C=C/C=C/1C [Temsirolimus (CCI-779, NSC 683864), Temsirolimus] | 96 | – |
| CO[C@H]1C[C@H](O[C@H]2[C@H](C)O[C@@H](O[C@@H]3/C(C)=C/C[C@@H]4C[C@@H](C[C@]5(C=C[C@H](C)[C@@H](C6CCCCC6)O5)O4)OC(=O)[C@@H]4C=C(C)[C@@H](O)[C@H]5OC/C(=C\C=C\[C@@H]3C)[C@]54O)C[C@@H]2OC)O[C@@H](C)[C@@H]1O [Doramectin] | 96 | pEC50 (read-out: EC 50): 4.89; pIC50 (read-out: IC50 Mean): 4.89 |
| CC(=O)O[C@@]12CO[C@@H]1C[C@H](O)[C@@]1(C)C(=O)[C@H](O)C3=C(C)[C@@H](OC(=O)[C@H](O)[C@@H](NC(=O)OC(C)(C)C)c4ccccc4)C[C@@](O)([C@@H](OC(=O)c4ccccc4)[C@H]21)C3(C)C [Docetaxel] | – | % Inhibition, Screen: 98% |
| CCOC(=O)c1c(N)sc2c1CCN(Cc1ccccc1)C2.Cl [Tinoridine Hydrochloride] | 90 | pEC50 (read-out: EC50 (corrected)): 3.59 |
